Assay results as given in PubChem BioAssay AID1963983 (Molecular Pharmacology Branch, DTP, NCI, 2024).

Test system: 186277-243-T-J2-PDC multi-cell spheroid viability
Assay: Anticancer human tumor 186277-243-T-J2-PDC patient-derived colon adenocarcinoma cell line growth inhibition [PI3K]
Settings: for IC50: curve of first compound; for viability, T/C: stronger effect = lower value
Summary of the method: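 Spheroid viability read-out. Co-cultures contained the tumor line plus HUVEC and human MSCs. Each agent was paired with a PI3K inhibitor (inavolisib, alpelisib, duvelisib, copanlisib) across half-log dilutions starting at clinical Cmax, or at 10 microM when Cmax was unknown.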

[1] = second compound 0.0316 µM, first compound 0.0316 µM
[2] = second compound 0.0316 µM, first compound 0.1 µM
[3] = second compound 0.0316 µM, first compound 0.316 µM
[4] = second compound 0.0316 µM, first compound 1 µM
[5] = second compound 0.0316 µM, first compound 3.16 µM
[6] = second compound 0.0316 µM, first compound 10 µM
[7] = second compound 0.1 µM, first compound 0.0316 µM
[8] = second compound 0.1 µM, first compound 0.1 µM
[9] = second compound 0.1 µM, first compound 0.316 µM
[10] = second compound 0.1 µM, first compound 1 µM
[11] = second compound 0.1 µM, first compound 3.16 µM
[12] = second compound 0.1 µM, first compound 10 µM
[13] = second compound 0.316 µM, first compound 0.0316 µM
[14] = second compound 0.316 µM, first compound 0.1 µM
[15] = second compound 0.316 µM, first compound 0.316 µM
[16] = second compound 0.316 µM, first compound 1 µM
[17] = second compound 0.316 µM, first compound 3.16 µM
[18] = second compound 0.316 µM, first compound 10 µM
[19] = second compound 1 µM, first compound 0.0316 µM
[20] = second compound 1 µM, first compound 0.1 µM
[21] = second compound 1 µM, first compound 0.316 µM
[22] = second compound 1 µM, first compound 1 µM
[23] = second compound 1 µM, first compound 3.16 µM
[24] = second compound 1 µM, first compound 10 µM
[25] = second compound 3.16 µM, first compound 0.0316 µM
[26] = second compound 3.16 µM, first compound 0.1 µM
[27] = second compound 3.16 µM, first compound 0.316 µM
[28] = second compound 3.16 µM, first compound 1 µM
[29] = second compound 3.16 µM, first compound 3.16 µM
[30] = second compound 3.16 µM, first compound 10 µM
[31] = second compound 10 µM, first compound 0.0316 µM
[32] = second compound 10 µM, first compound 0.1 µM
[33] = second compound 10 µM, first compound 0.316 µM
[34] = second compound 10 µM, first compound 1 µM
[35] = second compound 10 µM, first compound 3.16 µM
[36] = second compound 10 µM, first compound 10 µM
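Further: spheroids exposed to compounds for seven days before viability reading.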
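Wherever viability, T/C is given: 100% = DMSO vehicle control viability.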

For `C[C@@H](NC(=O)c1ncnc(N)c1Cl)c1ncc(C(=O)Nc2cc(C(F)(F)F)c(Cl)cn2)s1` + Cc1nc(NC(=O)N2CCCC2C(N)=O)sc1-c1ccnc(C(C)(C)C(F)(F)F)c1, the IC50 (second compound 0.0316 µM) was > 10000 nM, the IC50 (second compound 0.1 µM) was > 10000 nM and the IC50 (second compound 0.316 µM) was 8100 nM. The IC50 (second compound 1 µM) was 4320 nM, the IC50 (second compound 3.16 µM) was 382 nM and the IC50 (second compound 10 µM) was < 31.6 nM. The viability, T/C [1] was 87.8%, the viability, T/C [2] was 78.3% and the viability, T/C [3] was 101%. For the same compound, the viability, T/C [4] was 99.5%, the viability, T/C [5] was 102% and the viability, T/C [6] was 78.4%. The viability, T/C [7] was 92.9%, the viability, T/C [8] was 90.8% and the viability, T/C [9] was 93.9%. The viability, T/C [10] was 108%, the viability, T/C [11] was 99.2% and the viability, T/C [12] was 72%. For the same compound, the viability, T/C [13] was 104%, the viability, T/C [14] was 107% and the viability, T/C [15] was 105%. The viability, T/C [16] was 88.1%, the viability, T/C [17] was 85.8% and the viability, T/C [18] was 42.1%. For the same compound, the viability, T/C [19] was 103%, the viability, T/C [20] was 88.5% and the viability, T/C [21] was 102%. For the same compound, the viability, T/C [22] was 91.2%, the viability, T/C [23] was 62.8% and the viability, T/C [24] was 15.7%. The viability, T/C [25] was 77.8%, the viability, T/C [26] was 65.8% and the viability, T/C [27] was 54.9%. The viability, T/C [28] was 33.3%, the viability, T/C [29] was 12.9% and the viability, T/C [30] was 6%. It also gave a viability, T/C [31] of 18.7%, a viability, T/C [32] of 18.9% and a viability, T/C [33] of 14.2%. The viability, T/C [34] was 4.89%, the viability, T/C [35] was 5.43% and the viability, T/C [36] was 0.25%.

With `Cn1ncc(Cl)c1-c1cc(C(=O)NC(CN)Cc2cccc(F)c2)sc1Cl` (stereo unspecified) + Cc1nc(NC(=O)N2CCCC2C(N)=O)sc1-c1ccnc(C(C)(C)C(F)(F)F)c1 the IC50 (second compound 0.0316 µM) was 960 nM, the IC50 (second compound 0.1 µM) was 253 nM and the IC50 (second compound 0.316 µM) was 225 nM. The IC50 (second compound 1 µM) was 157 nM, the IC50 (second compound 3.16 µM) was < 31.6 nM and the IC50 (second compound 10 µM) was < 31.6 nM. For the same compound, the viability, T/C [1] was 96.2%, the viability, T/C [2] was 87.8% and the viability, T/C [3] was 56.8%. It also gave a viability, T/C [4] of 47.8%, a viability, T/C [5] of 43% and a viability, T/C [6] of 17.3%. For the same compound, the viability, T/C [7] was 112%, the viability, T/C [8] was 68% and the viability, T/C [9] was 43.4%. For the same compound, the viability, T/C [10] was 32.4%, the viability, T/C [11] was 33.2% and the viability, T/C [12] was 11.6%. For the same compound, the viability, T/C [13] was 114%, the viability, T/C [14] was 66.2% and the viability, T/C [15] was 43%. For the same compound, the viability, T/C [16] was 26.3%, the viability, T/C [17] was 25.3% and the viability, T/C [18] was 9.1%. For the same compound, the viability, T/C [19] was 95%, the viability, T/C [20] was 65.7% and the viability, T/C [21] was 25%. For the same compound, the viability, T/C [22] was 14.7%, the viability, T/C [23] was 17.2% and the viability, T/C [24] was 3.49%. The viability, T/C [25] was 48.7%, the viability, T/C [26] was 33.7% and the viability, T/C [27] was 19.6%. The viability, T/C [28] was 13.7%, the viability, T/C [29] was 8.89% and the viability, T/C [30] was 1.65%. It also gave a viability, T/C [31] of 15.7%, a viability, T/C [32] of 8.3% and a viability, T/C [33] of 6.89%. It also gave a viability, T/C [34] of 6.6%, a viability, T/C [35] of 3.36% and a viability, T/C [36] of 3.79%.

For `Cn1ncnc1[C@H]1c2n[nH]c(=O)c3cc(F)cc(c23)N[C@@H]1c1ccc(F)cc1` + Cc1nc(NC(=O)N2CCCC2C(N)=O)sc1-c1ccnc(C(C)(C)C(F)(F)F)c1, the IC50 (second compound 0.0316 µM) was > 100 nM, the IC50 (second compound 0.1 µM) was > 100 nM and the IC50 (second compound 0.316 µM) was > 100 nM. For the same compound, the IC50 (second compound 1 µM) was > 100 nM, the IC50 (second compound 3.16 µM) was 2.54 nM and the IC50 (second compound 10 µM) was < 0.316 nM. For the same compound, the viability, T/C (second compound 0.0316 µM, first compound 0.000316 µM) was 86.8%, the viability, T/C (second compound 0.0316 µM, first compound 0.001 µM) was 82.2% and the viability, T/C (second compound 0.0316 µM, first compound 0.00316 µM) was 94.5%. It also gave a viability, T/C (second compound 0.0316 µM, first compound 0.01 µM) of 96.9%, a viability, T/C [1] of 112% and a viability, T/C [2] of 92.7%. It also gave a viability, T/C (second compound 0.1 µM, first compound 0.000316 µM) of 114%, a viability, T/C (second compound 0.1 µM, first compound 0.001 µM) of 99.6% and a viability, T/C (second compound 0.1 µM, first compound 0.00316 µM) of 97.1%. The viability, T/C (second compound 0.1 µM, first compound 0.01 µM) was 117%, the viability, T/C [7] was 116% and the viability, T/C [8] was 108%. For the same compound, the viability, T/C (second compound 0.316 µM, first compound 0.000316 µM) was 114%, the viability, T/C (second compound 0.316 µM, first compound 0.001 µM) was 113% and the viability, T/C (second compound 0.316 µM, first compound 0.00316 µM) was 112%. For the same compound, the viability, T/C (second compound 0.316 µM, first compound 0.01 µM) was 107%, the viability, T/C [13] was 104% and the viability, T/C [14] was 90.4%. It also gave a viability, T/C (second compound 1 µM, first compound 0.000316 µM) of 101%, a viability, T/C (second compound 1 µM, first compound 0.001 µM) of 94.9% and a viability, T/C (second compound 1 µM, first compound 0.00316 µM) of 99.9%. The viability, T/C (second compound 1 µM, first compound 0.01 µM) was 91.6%, the viability, T/C [19] was 85.5% and the viability, T/C [20] was 65.9%. It also gave a viability, T/C (second compound 3.16 µM, first compound 0.000316 µM) of 64.3%, a viability, T/C (second compound 3.16 µM, first compound 0.001 µM) of 52.7% and a viability, T/C (second compound 3.16 µM, first compound 0.00316 µM) of 45.9%. For the same compound, the viability, T/C (second compound 3.16 µM, first compound 0.01 µM) was 46.9%, the viability, T/C [25] was 43.9% and the viability, T/C [26] was 33.6%. The viability, T/C (second compound 10 µM, first compound 0.000316 µM) was 13.6%, the viability, T/C (second compound 10 µM, first compound 0.001 µM) was 12% and the viability, T/C (second compound 10 µM, first compound 0.00316 µM) was 14.8%. For the same compound, the viability, T/C (second compound 10 µM, first compound 0.01 µM) was 17.4%, the viability, T/C [31] was 11.3% and the viability, T/C [32] was 8.17%.
